In ChEMBL document CHEMBL5678800 (Mol Cancer Ther, 2009):
Active and inactive are the calls of the source. No cut-off for these calls is given here.

Tests used:
IGF-1R-Sal [1] = test: In vivo inhibition of IGF-1R phosphorylation in mouse IGF-1R-Sal cells xenografted in nude mouse at 12.5 mg/kg, po administered for 8 to 24 hrs by Western blotting analysis; type: functional, organism-based; settings: time lower 8.0 hrs, time upper […]
GEO [2] = test: Antitumor activity against human GEO cells xenografted in nude mouse assessed as tumor growth inhibition at 6.25 mg/kg, po administered for 17 days relative to control; type: functional; settings: 408 h, time 17 day, read-out: TGI
GTL 16 cell line = test: Antiproliferative activity against human GTL 16 cell line assessed as inhibition of cell viability incubated for 72 hrs by 3H-thymidine incorporation assay; type: functional, cell-based
[3] = Toxicity in nude mouse xenografted with human GEO cells assessed as mortality at 12.5 mg/kg, po administered for 3 days in presence of cetuximab at 0.125 mg/kg relative to control; type: organism-based; settings: in vivo, time 3 day
GEO [4] = test: Antitumor activity against human GEO cells xenografted in nude mouse assessed as tumor growth inhibition at 25-50 mg/kg, po administered for 14 days relative to control; type: functional; settings: 336 h, time 14 day, read-out: TGI
Rh41 [5] = test: Induction of cell cycle arrest in human Rh41 cells assessed as accumulation of cells at G2/M phase by measuring >4N DNA content at 10x IC50 incubated for 48 hrs by propidium iodide staining based flow cytometry analysis; type: functional
GEO [6] = test: Antitumor activity against human GEO cells xenografted in nude mouse assessed as tumor growth inhibition at 25 mg/kg, po administered for 3 days in presence of cetuximab at 0.125 mg/kg relative to control; type: functional; settings: 72 h, time 3 day, read-out: TGI
[7] = Toxicity in nude mouse xenografted with human GEO cells assessed as body weight loss at 12.5 mg/kg, po administered for 3 days in presence of cetuximab at 0.25 mg/kg relative to control; type: organism-based; settings: in vivo, 72 h, time 3 day
Mus musculus [8] = test: Anti-diabetic activity against nude mouse xenografted with mouse IGF-1R-Sal cells assessed as increased serum glucose level at 25 mg/kg, po administered for 2 hrs by oral glucose tolerance test (Rvb= 97.40 +/- 5.0 mg/dl); type: functional
[9] = target: Protein kinase C alpha type (Homo sapiens, UniProt P17252); test: Inhibition of recombinant PKCalpha (unknown origin) incubated for 60 mins in presence of ATP by electrophoretic caliper fluorescence analysis
JJN-3 = test: Antitumor activity against human JJN-3 cells xenografted in nude mouse assessed as tumor growth inhibition at 25 mg/kg, po administered for 14 days relative to control; type: functional; settings: JJN-3, 336 h, time 14 day, read-out: TGI
GEO [10] = test: Antitumor activity against human GEO cells xenografted in nude mouse assessed as tumor growth delay time at 25 mg/kg, po administered for 3 days in presence of cetuximab at 0.25 mg/kg relative to control; type: functional; settings: time 3 day
IGF-1R-Sal [11] = test: In vivo inhibition of IGF-1R phosphorylation in mouse IGF-1R-Sal cells xenografted in nude mouse at 12.5 mg/kg, po administered for 30 mins by Western blotting analysis; type: functional, organism-based
GEO [12] = test: Antitumor activity against human GEO cells xenografted in nude mouse assessed as tumor growth delay time at 6.25 mg/kg, po administered for 3 days in presence of cetuximab at 0.25 mg/kg relative to control; type: functional; settings: time 3 day
GEO [13] = test: Antitumor activity against human GEO cells xenografted in nude mouse assessed as tumor growth delay time at 25 mg/kg, po administered for 17 days relative to control; type: functional; settings: time 17 day
GEO [14] = test: Antitumor activity against human GEO cells xenografted in nude mouse assessed as tumor growth inhibition at 25 mg/kg, po administered for 14 days relative to control; type: functional; settings: 336 h, time 14 day, read-out: TGI
Mus musculus [15] = test: Anti-diabetic activity against nude mouse xenografted with mouse IGF-1R-Sal cells assessed as insulin level at 25 mg/kg, po administered for 2 hrs by ELISA analysis (Rvb= 0.39 +/- […]); type: functional
[16] = Toxicity in nude mouse xenografted with human GEO cells assessed as mortality at 6.25 mg/kg, po administered for 3 days in presence of cetuximab at 0.125 mg/kg relative to control; type: organism-based; settings: in vivo, time 3 day
GEO [17] = test: Antitumor activity against human GEO cells xenografted in nude mouse assessed as tumor growth inhibition at 12.5 mg/kg, po administered for 3 days in presence of cetuximab at 0.125 mg/kg relative to control; type: functional; settings: 72 h, time 3 day, read-out: TGI
[18] = Toxicity in nude mouse xenografted with human GEO cells assessed as mortality at 12.5 mg/kg, po administered for 17 days relative to control; type: organism-based; settings: in vivo, time 17 day
[19] = Toxicity in nude mouse xenografted with human GEO cells assessed as body weight loss at 6.25 mg/kg, po administered for 3 days in presence of cetuximab at 0.25 mg/kg relative to control; type: organism-based; settings: in vivo, 72 h, time 3 day
Rh41 [20] = test: Induction of cell cycle arrest in human Rh41 cells assessed as accumulation of cells at sub-G1 phase at 10x IC50 incubated for 24 hrs by propidium iodide staining based flow cytometry analysis (reference value: […])
RD1 = test: Antitumor activity against human RD1 cells xenografted in nude mouse assessed as tumor growth inhibition at 50 mg/kg, po administered for 14 days relative to control; settings: 336 h, read-out: TGI
Rh41 [21] = test: Induction of cell cycle arrest in human Rh41 cells assessed as accumulation of cells at G2/M phase at 10x IC50 incubated for 48 hrs by propidium iodide staining based flow cytometry analysis relative to control; type: functional
GEO [22] = test: Antitumor activity against human GEO cells xenografted in nude mouse assessed as tumor growth delay time at 12.5 mg/kg, po administered for 3 days in presence of cetuximab at 0.25 mg/kg relative to control; type: functional; settings: time 3 day
GEO [23] = test: Antitumor activity against human GEO cells xenografted in nude mouse assessed as tumor growth inhibition at 25 mg/kg, po administered for 17 days relative to control; type: functional; settings: 408 h, time 17 day, read-out: TGI

With `C[C@@]1(C(=O)Nc2ccc(F)nc2)CCCN1c1nc(Nc2cc(C3CC3)n[nH]2)c2cccn2n1` [BMS-754807] the inhibition (IGF-1R-Sal [1]) was “Active”, the inhibition in vivo at 6.25 mg/kg (GEO [2]) was 24% and the IC50 (GTL 16 cell line) was 0.2 µM. The mortality at 72 h [3] was 0%, the inhibition in vivo at 50 mg/kg (GEO [4]) was 41% and the Activity (Rh41 [5]) was “Active”. The inhibition in vivo at 25 mg/kg (GEO [6]) was 89%, the Activity [7] was 1.2 g and the Activity (Mus musculus [8]) was 95 mg/dL. The IC50 [9] was 2.53 µM, the inhibition in vivo at 25 mg/kg (JJN-3) was 53% and the Time (GEO [10]) was 24 days. For the same compound, the inhibition (IGF-1R-Sal [11]) was “Active”, the Time (GEO [12]) was 23 days and the Time (GEO [13]) was 7 days. It also gave an inhibition in vivo at 25 mg/kg (GEO [14]) of 56%, an Activity (Mus musculus [15]) of 17.2 ng/mL and a mortality at 72 h [16] of 0%. The inhibition in vivo at 12.5 mg/kg (GEO [17]) was 86%, the mortality at 408 h [18] was 0% and the Activity [19] was 1.4 g. The Activity (Rh41 [20]) was 23.1%, the inhibition in vivo at 50 mg/kg (RD1) was 58% and the Activity (Rh41 [21]) was 2.8%. For the same compound, the Time (GEO [22]) was 38 days and the inhibition in vivo at 25 mg/kg (GEO [23]) was 61%.
